Laboratory results published in patent US5206236A, “Method for the treatment of malaria” (priority 1991, dated 1993).
Entries after “also recorded” stand apart in the source; their conditions may differ. Read-outs that look alike come from different tables or passages of the source.

What was measured:
Type in all cases: cell-based
[1] = tested on: Plasmodium falciparum strains W2 and D6; test: In vitro drug sensitivity assay, overall efficacy over both strains; details: qualitative
Description: (§1) Plasmodium falciparum strains W2 (chloroquine-resistant, mefloquine-sensitive) and D6 (mefloquine-resistant, chloroquine-sensitive)were cultured in a medium consisting of RPMI-1640, 25 mM HEPES, 25 mM NaHCO3, and 10% (v/v) fresh frozen human plasma. Into the wells of a 96 well microtiter plate there was placed 200 ul per well of a 1.5% erythrocyte suspension containing 0.2% to 0.4% parasitized erythrocytes containing serial dilutions of the test compounds. The plate was then placed in an anaerobic chamber, flushed with nitrogen gas and incubated at 37° C. After 24 hours, 25 ul per well of G-^3 H-hypoxanthine (1 mCi/ml) were added and the plate reincubated as above. After 42 hours, the cells were harvested with a multimash-type cell harvester onto glass microfiber paper. A scintillation counter was used to determine the incorporated of ^3 H-hypoxanthine. The activities of the compounds tested were determined by comparing the incorporation of ^3 H-hypoxanthine to drug concentration using computerized non-linear regression analysis. [Antimicrob. Agents Chemother. 16:710, 1979; Am.J.Trop.Med.Hygiene 34:209, 1985].

[2] = tested on: Plasmodium falciparum strain D6 (mefloquine-resistant, chloroquine-sensitive); test: In vitro drug sensitivity assay (3H-hypoxanthine incorporation), strain D6; details: for IC50: Plasmodium falciparum
Description: as §1

[3] = tested on: Plasmodium falciparum strain W2 (chloroquine-resistant, mefloquine-sensitive); test: In vitro drug sensitivity assay (3H-hypoxanthine incorporation), strain W2; details: for IC50: Plasmodium falciparum
Description: as §1

[4] = strain D6, 3H-hypoxanthine incorporation, 42 hours, 37° C, read-out: IC50 (uM), D6
[5] = strain W2, 3H-hypoxanthine incorporation, 42 hours, 37° C, read-out: IC50 (uM), W2

`N=C(N)c1ccc(OCCCCCOc2ccc(C(=N)N)cc2)cc1` [Example 4, reference compound] was tested, and the “efficacy against malaria (in words)” value [1] was “moderately effective against malaria”, the IC50 ([2]; D6, read-out: IC50 (uM), D6) was 0.038 µM and the IC50 ([3]; W2, read-out: IC50 (uM), W2) was 0.083 µM.

`CN1CCN=C1c1ccc(OCCCCCOc2ccc(C3=NCCN3C)cc2)cc1` [Example 16] gave an IC50 [2, 4] of 0.089 µM and an IC50 [3, 5] of 1.82 µM.

`N=C(N)c1cccc(OCCCCCOc2cccc(C(=N)N)c2)c1` [Example 13] showed an IC50 [2, 4] of 0.069 µM and an IC50 [3, 5] of 0.08 µM.

Work on `N=C(N)c1ccc(OCCCCCOc2ccc(C(=N)N)cc2Cl)c(Cl)c1` [Example 10] yielded an IC50 [2, 4] of 0.107 µM and an IC50 [3, 5] of 0.165 µM.

Work on `N=C(N)c1ccc(OCCCCCOc2ccc(C(=N)N)cc2[N+](=O)[O-])c([N+](=O)[O-])c1` [Example 5] yielded an IC50 ([2]; D6, read-out: IC50 (uM), D6) of 0.071 µM and an IC50 ([3]; W2, read-out: IC50 (uM), W2) of 0.069 µM.

`N=C(N)c1ccc(OCCCCCOc2ccc(C(=N)N)cc2N)c(N)c1` [Example 6] gave an IC50 [2, 4] of 0.046 µM and an IC50 [3, 5] of 0.076 µM.

For `N=C(N)c1ccc(OCCCCCCOc2ccc(C(=N)N)cc2)cc1` [Example 9], the IC50 [2, 4] was 0.118 µM and the IC50 [3, 5] was 0.345 µM.

Compound `COc1cc(C(=N)N)ccc1OCCCOc1ccc(C(=N)N)cc1OC` [Example 1] has an IC50 [2, 4] of 0.077 µM and an IC50 [3, 5] of 0.065 µM.

In the case of `N=C(N)c1ccc(NCCCCNc2ccc(C(=N)N)cc2)cc1` [Example 2], the IC50 [2, 4] is reported as 0.025 µM and the IC50 [3, 5] is reported as 0.057 µM.

With `COc1cc(C(=N)N)ccc1OCCCCCOc1ccc(C(=N)N)cc1OC` [Example 7] the IC50 [2, 4] was 0.106 µM and the IC50 [3, 5] was 0.066 µM.

Compound `COc1cc(C2=NCCN2)ccc1OCCCOc1ccc(C2=NCCN2)cc1OC` [Example 17] has an IC50 [2, 4] of 0.1 µM and an IC50 [3, 5] of 0.06 µM.

`N=C(N)c1ccc(OCCCCOc2ccc(C(=N)N)cc2)cc1` [Example 3] was tested, and the IC50 [2, 4] was 0.057 µM and the IC50 [3, 5] was 0.12 µM.

`N=C(N)c1ccc(NCCCCCNc2ccc(C(=N)N)cc2)cc1` [Example 8] was tested, and the “efficacy against malaria (in words)” value [1] was “most efficacious product identified to date; also recorded: best compound for treating both strains of Plasmodium falciparum”, the IC50 [2, 4] was under 0.02 µM and the “efficacy against the mefloquine-resistant strain (D6) (in words)” value ([2]; qualitative) was “most effective compound”. The IC50 [3, 5] was 0.022 µM and the “efficacy against the chloroquine-resistant strain (W2) (in words)” value ([3]; qualitative) was “most effective compound”.

`N=C(N)c1cccc(OCCCCCCOc2cccc(C(=N)N)c2)c1` [Example 14] showed an IC50 [2, 4] of 0.132 µM and an IC50 [3, 5] of 0.125 µM.

For `c1cc(C2=NCCN2)ccc1OCCCCCOc1ccc(C2=NCCN2)cc1` [Example 15], the “efficacy against malaria (in words)” value [1] was “Very close in therapeutic efficacy against malaria”, the IC50 [2, 4] was 0.023 µM and the IC50 [3, 5] was 0.104 µM.

In the case of `c1cc(C2=NCCN2)ccc1OCCCOc1ccc(C2=NCCN2)cc1` [Example 18], the “efficacy against malaria (in words)” value [1] is reported as “Very close in therapeutic efficacy against malaria”, the IC50 [2, 4] is reported as 0.025 µM and the IC50 [3, 5] is reported as 0.06 µM.

`N=C(N)c1cccc(OCCCOc2cccc(C(=N)N)c2)c1` [Example 11] gave an IC50 [2, 4] of 0.194 µM and an IC50 [3, 5] of 0.156 µM.

In the case of `N=C(N)c1cccc(OCCCCOc2cccc(C(=N)N)c2)c1` [Example 12], the “efficacy against malaria (in words)” value [1] is reported as “Very close in therapeutic efficacy against malaria”, the IC50 [2, 4] is reported as 0.046 µM and the IC50 [3, 5] is reported as 0.043 µM.
